Test results: patent US4725683A, “Fluorophenoxyphenoxypropionates and derivatives thereof” (The Dow Chemical Company, priority 1985, dated 1988)

Key:
Type in all cases: in vivo
[1] = system: Blackgrass; experiment: Postemergent activity
Procedure: (§1) Representative compositions of the present invention were evaluated for the postemergence control of species of plants listed in Table A. In these evaluations, pots of the plant species listed in Table A, grown to a height of about 10 cms, were used. […] The spray compositions were made by mixing the active ingredient in acetone to 1/2 the final volume, i.e., twice the final concentration. An equal amount of water was added to the active ingredient/acetone mixture wherein the water contained 0.1 percent by weight of TWEEN® 200 surfactant. The application to the plants was made to the point of run-off and was carried out with conventional spraying equipment. […] Thereafter, the pots were maintained under conditions conducive for plant growth.

[2] = system: Barley; experiment: Postemergent activity
Procedure: as §1

[3] = system: Yellow Foxtail; experiment: Postemergent activity
Procedure: as §1

[4] = system: Green Foxtail; experiment: Postemergent activity
Procedure: as §1

[5] = system: Cheatgrass; experiment: Postemergent activity
Procedure: as §1

[6] = system: Yellow Foxtail; experiment: Selective postemergence, track sprayer
Procedure: (§2) Representative compositions of the present invention were evaluated for the postemergence control of species of plants listed in Table A. In these evaluations, pots of the plant species listed in Table A, grown to a height of about 10 cms, were used. Aqueous spray compositions, containing various amounts of 2-[4-(2-fluoro-4-trifluoromethylphenoxy)-phenoxy]propionic acid methy ester, i.e., 125 ppm, 62.5 ppm, 31.25 ppm, 15.6 ppm, 7.8 ppm and 3.9 ppm, respectively, were applied to separate pots. The spray compositions were made by mixing the active ingredient in acetone to 1/2 the final volume, i.e., twice the final concentration. An equal amount of water was added to the active ingredient/acetone mixture wherein the water contained 0.1 percent by weight of TWEEN® 200 surfactant. The application to the plants was made to the point of run-off and was carried out with conventional spraying equipment. Other pots were sprayed with similar compositions containing no toxicant to serve as controls. Thereafter, the pots were maintained under conditions conducive for plant growth. Two weeks after treatment, the pots were examined for plant growth and evaluated on a scale of 0 to 100 where 0 represents no effect and 100 represents complete kill. The results of the examination of the treated pots are set forth below in Table A.
(§3) To further define the selective postemergence herbicidal characteristics of compounds of the present invention, chemicals were applied to additional species of grasses as listed in Table F. Chemicals evaluated were 2-[4-(4-bromo-2-fluorophenoxy)phenoxy]propionic acid methyl ester and its R isomer. Treatment conditions were similar to those described in Example A except that chemicals were delivered through a track sprayer set to deliver the appropriate dosages in 280.6 L/hectare of water containing 0.1% Tween-20 surfactant.

[7] = system: Johnsongrass; experiment: Selective postemergence, track sprayer
Procedure: as §2, §3

[8] = system: Crabgrass; experiment: Selective postemergence, track sprayer
Procedure: as §2, §3

[9] = system: Sprangletop; experiment: Selective postemergence, track sprayer
Procedure: as §2, §3

[10] = system: Wild Oats; experiment: Postemergent activity; conditions: Avena fatua, post-emergence, 336 h
In short: (§4)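 Pots of plants about 10 cm tall sprayed to run-off at 125, 62.5, 31.25, 15.6, 7.8 and 3.9 ppm. Spray: active in acetone mixed with an equal volume of water containing 0.1% TWEEN 200. Growth scored two weeks later on a 0–100 scale (0 no effect, 100 complete kill).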

[11] = system: Wheat; experiment: Postemergent activity; conditions: Triticum aestivum, post-emergence, 336 h, read-out: % Control
In short: as §4

## COC(=O)C(C)Oc1ccc(Oc2ccc(Br)cc2F)cc1 (racemic) [Example 4-Bromo-, 2-[4-(4-bromo-2-fluorophenoxy)phenoxy]propionic acid methyl ester]
[1]; 0.2 ppm
  % Control: 0%
[1]; 0.4 ppm
  % Control: 10%
[1]; 0.8 ppm
  % Control: 30%
[1]; 1.5 ppm
  % Control: 50%
[1]; 3.1 ppm
  % Control: 70%
[1]; 6.25 ppm
  % Control: 99%
[1]; 12.5 ppm
  % Control: 100%
[1]; 25 ppm
  % Control: 100%
[2]; 3.9 ppm
  % Control: 0%
[2]; 7.8 ppm
  % Control: 0%
[2]; 15.6 ppm
  % Control: 0%
[2]; 31.25 ppm
  % Control: 0%
[2]; 62.5 ppm
  % Control: 10%
[2]; 125 ppm
  % Control: 10%
[2]; 250 ppm
  % Control: 10%
[2]; 500 ppm
  % Control: 30%
[3]; 0.2 ppm
  % Control: 0%
[3]; 0.4 ppm
  % Control: 0%
[3]; 0.8 ppm
  % Control: 20%
[3]; 1.5 ppm
  % Control: 50%
[3]; 3.1 ppm
  % Control: 80%
[3]; 6.25 ppm
  % Control: 100%
[3]; 12.5 ppm
  % Control: 100%
[3]; 25 ppm
  % Control: 100%
[4]; 0.2 ppm
  % Control: 20%
[4]; 0.4 ppm
  % Control: 90%
[4]; 0.8 ppm
  % Control: 90%
[4]; 1.5 ppm
  % Control: 100%
[4]; 3.1 ppm
  % Control: 100%
[4]; 6.25 ppm
  % Control: 100%
[4]; 12.5 ppm
  % Control: 100%
[4]; 25 ppm
  % Control: 100%
[5]; 0.2 ppm
  % Control: 0%
[5]; 0.4 ppm
  % Control: 0%
[5]; 0.8 ppm
  % Control: 0%
[5]; 1.5 ppm
  % Control: 0%
[5]; 3.1 ppm
  % Control: 0%
[5]; 6.25 ppm
  % Control: 0%
[5]; 12.5 ppm
  % Control: 0%
[5]; 25 ppm
  % Control: 0%
[6]; 0.0011 kgs/hectare
  Percent Control: 0%
[6]; 0.0023 kgs/hectare
  Percent Control: 0%
[6]; 0.0045 kgs/hectare
  Percent Control: 0%
[6]; 0.009 kgs/hectare
  Percent Control: 40%
[6]; 0.035 kgs/hectare
  Percent Control: 80%
[6]; 0.07 kgs/hectare
  Percent Control: 100%
[6]; 0.14 kgs/hectare
  Percent Control: 100%
[6]; 0.28 kgs/hectare
  Percent Control: 100%
[6]; 0.56 kgs/hectare
  Percent Control: 100%
[7]; 0.0011 kgs/hectare
  Percent Control: 0%
[7]; 0.0023 kgs/hectare
  Percent Control: 0%
[7]; 0.0045 kgs/hectare
  Percent Control: 0%
[7]; 0.009 kgs/hectare
  Percent Control: 0%
[7]; 0.035 kgs/hectare
  Percent Control: 0%
[7]; 0.07 kgs/hectare
  Percent Control: 0%
[7]; 0.14 kgs/hectare
  Percent Control: 20%
[7]; 0.28 kgs/hectare
  Percent Control: 30%
[7]; 0.56 kgs/hectare
  Percent Control: 80%
[8]; 0.0011 kgs/hectare
  Percent Control: 0%
[8]; 0.0023 kgs/hectare
  Percent Control: 0%
[8]; 0.0045 kgs/hectare
  Percent Control: 50%
[8]; 0.009 kgs/hectare
  Percent Control: 50%
[8]; 0.035 kgs/hectare
  Percent Control: 100%
[8]; 0.07 kgs/hectare
  Percent Control: 100%
[8]; 0.14 kgs/hectare
  Percent Control: 100%
[8]; 0.28 kgs/hectare
  Percent Control: 100%
[8]; 0.56 kgs/hectare
  Percent Control: 100%
[9]; 0.0011 kgs/hectare
  Percent Control: 0%
[9]; 0.0023 kgs/hectare
  Percent Control: 20%
[9]; 0.0045 kgs/hectare
  Percent Control: 95%
[9]; 0.009 kgs/hectare
  Percent Control: 100%
[9]; 0.035 kgs/hectare
  Percent Control: 100%
[9]; 0.14 kgs/hectare
  Percent Control: 100%
[9]; 0.28 kgs/hectare
  Percent Control: 100%
[9]; 0.56 kgs/hectare
  Percent Control: 100%
[10]; 3.9 ppm
  pest or weed control at 3.9 ppm: 70%
[10]; 7.8 ppm, read-out: % Control
  pest or weed control at 7.8 ppm: 80%
[10]; 15.6 ppm, read-out: % Control
  pest or weed control at 15.6 ppm: 100%
[10]; 31.25 ppm, read-out: % Control
  pest or weed control at 31.25 ppm: 100%
[10]; 62.5 ppm, read-out: % Control
  pest or weed control at 62.5 ppm: 100%
[10]; 125 ppm, read-out: % Control
  pest or weed control at 125 ppm: 95%
[10]; 250 ppm, read-out: % Control
  pest or weed control at 250 ppm: 100%
[10]; 500 ppm, read-out: % Control
  pest or weed control at 500 ppm: 100%
[11]; 3.9 ppm
  plant injury at 3.9 ppm: 0%
[11]; 7.8 ppm
  plant injury at 7.8 ppm: 0%
[11]; 15.6 ppm
  plant injury at 15.6 ppm: 0%
[11]; 31.25 ppm
  plant injury at 31.25 ppm: 0%
[11]; 62.5 ppm
  plant injury at 62.5 ppm: 0%
[11]; 125 ppm
  plant injury at 125 ppm: 0%
[11]; 250 ppm
  plant injury at 250 ppm: 0%
[11]; 500 ppm
  plant injury at 500 ppm: 0%
